Twelve compounds from ChEMBL document CHEMBL1201862, “PubChem BioAssay data set” (2004) can be followed below.

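All cell lines were grown in 96-well plates and treated with compound for 48 hours. GI50 = concentration required for 50% inhibition of growth.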 Active and inactive are the calls of the source. Rule as the data show it: active = GI50 up to about 1.1 µM and inactive = higher.

Test systems include CAKI-1; COLO 205; EKVX; HCC 2998; HCT-116; HL-60; IGROV-1; MCF7; MDA-MB-435; NCI-H23; NCI-H460; NCI-H522; OVCAR-3; RPMI-8226; SF-295; SK-MEL-5; SR; TK-10; NCI/ADR-RES.
Common to all, as to assay: growth of human tumour cells (NCI), 48 h

Consider `CNc1ncnc2c1cnn2CCCCO`, for which the GI50 with CAKI-1, in the assay with COLO 205, in the assay on EKVX, in the assay with HCC 2998, with HCT-116 and with HL-60 was > 100 µM (inactive) in each case. The GI50 in the assay with IGROV-1, in the assay on MCF7, in the assay with MDA-MB-435, in the assay with NCI-H23, in the assay with NCI-H460 and with NCI-H522 was > 100 µM (inactive) each time. The GI50 in the assay on OVCAR-3, in the assay with RPMI-8226, in the assay on SF-295, with SK-MEL-5, in the assay with SR and in the assay with TK-10 was > 100 µM (inactive) in each case.

For the compound `Cc1ccc2nc3ccccc3c(C3C4C(=O)N(c5ccc(Br)cc5Cl)C(=O)C4ON3C(C(N)=O)c3ccccc3)c2c1` (stereo unspecified), the GI50 in the assay with CAKI-1 was 4.9 µM (inactive); with COLO 205 it was > 25 µM (inactive); in the assay on EKVX, 6.56 µM (inactive); in the assay with HCT-116, 13.7 µM (inactive); in the assay on HL-60, > 25 µM (inactive); in the assay with IGROV-1, 16.7 µM (inactive). For the same compound, the GI50 in the assay with MCF7 was 11.6 µM (inactive); in the assay on MDA-MB-435 it was 11.1 µM (inactive); in the assay with NCI-H23, 0.321 µM (active); in the assay with NCI-H460, > 25 µM (inactive); in the assay with NCI-H522, 13.6 µM (inactive); in the assay on OVCAR-3, > 25 µM (inactive). Moreover, the GI50 with SF-295 was > 25 µM (inactive); in the assay on SK-MEL-5 it was 19.1 µM (inactive); with SR, 7.26 µM (inactive); with TK-10 it was > 25 µM (inactive).

As to `COCOCCCCCO[Si](C)(C)C(C)(C)C`, the GI50 in the assay on COLO 205 is 19 µM (inactive); with EKVX, 20 µM (inactive); in the assay on HCC 2998, 17.7 µM (inactive); with HCT-116, 12.9 µM (inactive); in the assay with HL-60, 7.1 µM (inactive); in the assay on IGROV-1 it was 32.6 µM (inactive). In addition, the GI50 in the assay on NCI-H23 is 17.2 µM (inactive); in the assay with NCI-H460, 19.6 µM (inactive); with NCI-H522, 13.7 µM (inactive); in the assay with OVCAR-3 it was 14.4 µM (inactive); in the assay on RPMI-8226, 16.5 µM (inactive); with SF-295 it was 14.8 µM (inactive). For the same compound, the values for the GI50 in the assay with SK-MEL-5, with SR and with TK-10 were 16.5 µM (inactive), 18.2 µM (inactive) and 33 µM (inactive), respectively.

For the compound `COc1cccc2c1CCc1sc(CN3CCN(C)CC3)nc1-2`, the GI50 in the assay with CAKI-1 is > 100 µM (inactive); in the assay with COLO 205, 61.2 µM (inactive); with EKVX it was > 100 µM (inactive); with HCC 2998, 49.4 µM (inactive); in the assay on HCT-116, 57.7 µM (inactive); in the assay on IGROV-1, > 100 µM (inactive). Also, the GI50 was 26.4 µM (inactive) with MCF7; 63.5 µM (inactive) with MDA-MB-435; 84.7 µM (inactive) with NCI-H23; 54.7 µM (inactive) with NCI-H460; 52.2 µM (inactive) with NCI-H522; > 100 µM (inactive) in the assay on NCI/ADR-RES. Besides, the GI50 is > 100 µM (inactive) in the assay with OVCAR-3; 30.1 µM (inactive) in the assay on RPMI-8226; 53 µM (inactive) in the assay on SF-295; 28.1 µM (inactive) in the assay on SK-MEL-5; > 100 µM (inactive) in the assay with TK-10.

Take `CC1(C)O[C@@H]([C@@H](O)[C@H](O)C2SCCCS2)[C@@H](CO)O1`: the GI50 in the assay with CAKI-1, with COLO 205, with EKVX, in the assay on HCT-116, with HL-60 and in the assay on IGROV-1 was > 100 µM (inactive) each time. Besides, the GI50 with MDA-MB-435, in the assay with NCI-H23, with NCI-H460, with NCI-H522, in the assay with NCI/ADR-RES and in the assay with OVCAR-3 was > 100 µM (inactive) throughout. Moreover, the GI50 in the assay on RPMI-8226, in the assay on SF-295, in the assay with SK-MEL-5 and with TK-10 was > 100 µM (inactive) in each case.

Take `CCOC(=O)c1cc(I)c(-c2cc(C)no2)n1C`: the GI50 in the assay with CAKI-1 is 20.3 µM (inactive); with COLO 205 it was 42.4 µM (inactive); in the assay with EKVX, 27 µM (inactive); with HCT-116, 40.4 µM (inactive); with HL-60 it was 26.1 µM (inactive); in the assay with MDA-MB-435 it was 34.8 µM (inactive). Moreover, the GI50 in the assay with NCI-H23 is 44.1 µM (inactive); in the assay on NCI-H460 it was 76.7 µM (inactive); in the assay with NCI-H522, 33.4 µM (inactive); with NCI/ADR-RES, 36.2 µM (inactive); in the assay with OVCAR-3, 38.4 µM (inactive); in the assay with RPMI-8226, 19.3 µM (inactive). Moreover, the GI50 in the assay with SF-295 is 55.7 µM (inactive); in the assay on SK-MEL-5, 33.1 µM (inactive); in the assay on TK-10, > 100 µM (inactive).

Turning to `CN(C)CCNC(=O)c1cccc2c1Oc1c(cccc1[N+](=O)[O-])O2`, the GI50 in the assay on CAKI-1 is 0.297 µM (active); in the assay on COLO 205, 1.87 µM (inactive); in the assay on EKVX, 3.22 µM (inactive); in the assay on HCC 2998, 1.04 µM (active); in the assay on HCT-116, 0.817 µM (active); in the assay on HL-60, 0.306 µM (active). Moreover, the GI50 is 1.56 µM (inactive) in the assay on IGROV-1; 0.957 µM (active) in the assay with MCF7; 3.44 µM (inactive) in the assay with MDA-MB-435; 1.44 µM (inactive) in the assay with NCI-H23; 0.413 µM (active) in the assay with NCI-H460; 0.975 µM (active) in the assay on NCI-H522. For the same compound, the GI50 was 2.69 µM (inactive) with OVCAR-3; 0.583 µM (active) in the assay on RPMI-8226; 0.548 µM (active) in the assay on SF-295; 1.28 µM (inactive) with SK-MEL-5; 0.462 µM (active) with SR; 1.69 µM (inactive) in the assay with TK-10.

Take `C=C1C(O)C23CCC4C(C(=O)O)(C(=O)O)CC(OC5OC(CO)C(O)C(OC(=O)CCc6ccccc6)C5NC(=O)CC(C)C)CC4(C)C2CCC1(O)C3` (stereo unspecified): the GI50 in the assay on CAKI-1, with COLO 205, in the assay with EKVX, in the assay on HCC 2998, with HCT-116 and with HL-60 was > 100 µM (inactive) each time. Moreover, the GI50 with IGROV-1, in the assay on MDA-MB-435, in the assay with NCI-H23, in the assay on NCI-H460, in the assay with NCI-H522 and in the assay with OVCAR-3 was > 100 µM (inactive) in each case. For the same compound, the GI50 in the assay on RPMI-8226, in the assay with SF-295, in the assay on SK-MEL-5, in the assay with SR and in the assay with TK-10 was > 100 µM (inactive) throughout.

For `Nc1nc(Nc2ccccc2)c2[nH]cnc2n1`, the GI50 is 49.2 µM (inactive) in the assay on CAKI-1; 89.9 µM (inactive) in the assay on COLO 205; > 100 µM (inactive) with EKVX; 86.3 µM (inactive) with HCC 2998; 69 µM (inactive) with HCT-116; 37.3 µM (inactive) with HL-60. Moreover, the GI50 is 32 µM (inactive) with IGROV-1; > 100 µM (inactive) in the assay with MCF7; > 100 µM (inactive) with MDA-MB-435; > 100 µM (inactive) in the assay on NCI-H23; 65.5 µM (inactive) in the assay on NCI-H522; > 100 µM (inactive) in the assay on NCI/ADR-RES. For the same compound, the GI50 in the assay on OVCAR-3 was 89.9 µM (inactive); in the assay with RPMI-8226, 53.7 µM (inactive); with SF-295, > 100 µM (inactive); in the assay on SK-MEL-5, 86.5 µM (inactive); in the assay with TK-10, 46.9 µM (inactive).

As for `C[C@@H]1CC[C@@H](C)[C@](C)(CCc2ccoc2)C/C=C\C=C/1C(=O)O`, the GI50 in the assay on CAKI-1 was > 50 µM (inactive); in the assay with COLO 205, > 50 µM (inactive); in the assay with EKVX, > 50 µM (inactive); with HCC 2998 it was > 50 µM (inactive); in the assay with HCT-116, > 50 µM (inactive); in the assay on HL-60, 15.3 µM (inactive). Besides, the GI50 in the assay on IGROV-1 was > 50 µM (inactive); with MCF7, > 50 µM (inactive); in the assay with NCI-H23, 32.1 µM (inactive); in the assay with NCI-H460, > 50 µM (inactive); with NCI/ADR-RES it was > 50 µM (inactive); in the assay with OVCAR-3, > 50 µM (inactive). For the same compound, the GI50 in the assay on SF-295, with SK-MEL-5, in the assay on SR and in the assay with TK-10 was > 50 µM (inactive) in each case.

Regarding `Cc1cc(C)n2c(nc3ccccc32)c1C#N`, the GI50 in the assay with CAKI-1 was > 100 µM (inactive); in the assay with COLO 205, > 100 µM (inactive); in the assay on EKVX, > 100 µM (inactive); with HCC 2998, > 100 µM (inactive); in the assay with HCT-116, 54.1 µM (inactive); in the assay with HL-60 it was > 100 µM (inactive). Besides, the GI50 with IGROV-1 is > 100 µM (inactive); in the assay on MCF7 it was > 100 µM (inactive); in the assay with MDA-MB-435 it was > 100 µM (inactive); with NCI-H23 it was > 100 µM (inactive); in the assay with NCI-H460 it was > 10 µM (inactive); with NCI/ADR-RES, > 100 µM (inactive). Also, the GI50 is > 100 µM (inactive) with OVCAR-3, > 100 µM (inactive) with SF-295, 55.7 µM (inactive) in the assay on SK-MEL-5 and > 100 µM (inactive) in the assay on TK-10.

Consider `C#Cc1cccc(N2C(=O)CC(=P(c3ccccc3)(c3ccccc3)c3ccccc3)C2=O)c1`, for which the GI50 in the assay with CAKI-1 is > 100 µM (inactive); with COLO 205, 44.9 µM (inactive); in the assay with EKVX, 44.2 µM (inactive); in the assay on HCC 2998, 70.8 µM (inactive); in the assay with HCT-116, 32.6 µM (inactive); in the assay on HL-60, 15.1 µM (inactive). Besides, the GI50 in the assay with NCI-H23 was 40.7 µM (inactive); with NCI-H460 it was 97.5 µM (inactive); with NCI-H522, 25 µM (inactive); with OVCAR-3, 31.5 µM (inactive); in the assay with RPMI-8226 it was 6.4 µM (inactive); in the assay with SF-295, > 100 µM (inactive). For the same compound, the GI50 in the assay with SK-MEL-5 was 25.6 µM (inactive); in the assay on SR it was 39.4 µM (inactive); in the assay on TK-10, > 100 µM (inactive).
